The target in one assay is human CYP4A11 (Homo sapiens (Human), UniProt Q02928). The assay can be described thus: Inhibition test against 20-HETE producing enzyme CYP4A11 (luciferine derivative, luminescence). Format: biochemical. In outline: (§1)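 E. coli membranes (100 μg/mL protein) expressing human enzyme, room temperature 60 min, luciferin-derivative luminescence; IC50 from % inhibition. CYP4F2: 50 mM KPO4 pH 7.4, 2.5 μM substrate, 1 mM NADPH. CYP4A11: 100 mM Tris-HCl pH 7.5, 60 μM substrate, NADP+/glucose 6-phosphate/G6PDH regenerating system, 3.3 mM MgCl2.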

Another assay concerns the target human CYP4F2 (Homo sapiens (Human), UniProt P78329). The assay can be described thus: Inhibition test against 20-HETE producing enzyme CYP4F2 (luciferine derivative, luminescence). In kind it is biochemical. An outline of the steps:
as §1

Where [1] appears, read: human CYP4A11, luciferine derivative, luminescence.
The mark [2] stands for this setting: human CYP4F2, luciferine derivative, luminescence.
[3] abbreviates: E. coli membrane fraction expressing human CYP4A11, 60 μM luciferine derivative, room temperature 60 minutes.
The mark [4] stands for this setting: E. coli membrane fraction expressing human CYP4F2, 2.5 μM luciferine derivative, room temperature 60 minutes.

Sequence of human CYP4F2 (P78329 5-520): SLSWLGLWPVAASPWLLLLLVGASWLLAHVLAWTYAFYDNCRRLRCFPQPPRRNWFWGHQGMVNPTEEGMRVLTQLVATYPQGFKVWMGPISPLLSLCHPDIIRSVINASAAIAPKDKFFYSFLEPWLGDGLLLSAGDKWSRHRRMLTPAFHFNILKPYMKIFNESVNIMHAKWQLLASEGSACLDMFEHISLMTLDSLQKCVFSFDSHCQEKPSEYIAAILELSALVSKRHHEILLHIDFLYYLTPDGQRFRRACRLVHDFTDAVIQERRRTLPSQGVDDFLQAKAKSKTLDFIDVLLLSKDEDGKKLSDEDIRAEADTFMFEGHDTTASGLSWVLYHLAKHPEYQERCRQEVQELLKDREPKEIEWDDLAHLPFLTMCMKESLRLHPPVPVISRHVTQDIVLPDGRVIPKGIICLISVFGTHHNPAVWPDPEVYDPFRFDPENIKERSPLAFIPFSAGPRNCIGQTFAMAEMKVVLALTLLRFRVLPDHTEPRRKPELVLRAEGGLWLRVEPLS
Sequence of human CYP4A11 (Q02928 5-519): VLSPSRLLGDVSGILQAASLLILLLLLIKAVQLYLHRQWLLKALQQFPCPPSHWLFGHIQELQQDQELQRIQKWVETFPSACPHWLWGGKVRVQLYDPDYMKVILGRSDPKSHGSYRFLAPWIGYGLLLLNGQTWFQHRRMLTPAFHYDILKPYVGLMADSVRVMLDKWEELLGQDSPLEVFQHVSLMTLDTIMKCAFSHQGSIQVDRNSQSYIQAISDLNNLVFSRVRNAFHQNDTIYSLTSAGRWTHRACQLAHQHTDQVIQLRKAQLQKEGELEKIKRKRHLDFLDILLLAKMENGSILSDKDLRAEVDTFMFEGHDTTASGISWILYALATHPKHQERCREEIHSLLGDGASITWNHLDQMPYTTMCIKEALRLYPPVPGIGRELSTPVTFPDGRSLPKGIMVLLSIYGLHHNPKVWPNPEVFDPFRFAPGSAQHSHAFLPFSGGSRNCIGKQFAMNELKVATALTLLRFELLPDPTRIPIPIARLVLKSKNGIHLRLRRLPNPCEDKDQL

Consider `CC(OCCCCCCCOc1ccc(-c2ccn[nH]2)nc1)C(=O)O` (stereo not drawn) [Example 71-4], for which the IC50 – broadly, the point on the concentration scale where inhibition reaches its midpoint – amounted to 0.27 µM against human CYP4A11 (setting [1]) and 0.2 µM against human CYP4F2 (setting [2]).
The corresponding values for `O=C(O)C1CC1c1ccc(CCOc2ccc(-c3ccn[nH]3)nc2)cc1` (stereo not drawn) [Example 70-9] are 0.21 µM and 0.2 µM.
For the compound `CC(=O)N1CCC(C(=O)O)(c2cccc(COc3ccc(-c4ccn[nH]4)nc3)c2)CC1` [Example 33-1, 1-Acetyl-4-[3-[[6-(1H-pyrazol-5-yl)-3-pyridinyl]oxymethyl]phenyl]-4-piperidinecarboxylic Acid], the figures for the IC50 on human CYP4A11 (setting [3]) and against human CYP4F2 (setting [4]) were 0.18 µM and 7 µM, respectively.
On to `CC(=O)N1CC(CCCCCCCCOc2ccc(-c3ccn[nH]3)nc2)(C(=O)O)C1` [Example 71-44], for which the results for the IC50 on human CYP4A11 (setting [1]) and at human CYP4F2 (setting [2]) were 1 µM and 0.037 µM, respectively.
`O=C(O)c1cccc(-c2cccc(COc3ccc(-c4ccn[nH]4)nc3)c2)n1` [Example 18-1, 6-[3-[[6-(1H-Pyrazol-5-yl)-3-pyridinyl]oxymethyl]phenyl]-2-pyridinecarboxylic Acid]: the IC50 stood at 0.013 µM against human CYP4A11 (setting [3]) and 0.46 µM against human CYP4F2 (setting [4]).
The corresponding values for `O=C(O)CCC12CCC(COc3ccc(-c4ccn[nH]4)nc3)(CC1)CC2` [Example 2-7] are 0.035 µM and 4.4 µM.
As for `O=C(O)C1CC2CCC(C1)N2C(=O)c1cccc(COc2ccc(-c3ccn[nH]3)nc2)c1` (stereo not drawn) [Example 45-33], the 50% inhibitory concentration (IC50) on human CYP4A11 (setting [1]) came to 2 µM; against human CYP4F2 (setting [2]), 19 µM.
As to `O=C(CCc1cccc(COc2cnc(-c3ccn[nH]3)c(F)c2)c1)N1CCC1` [Example 42-17], the half-maximal inhibitory concentration (IC50) against human CYP4A11 (setting [1]) came to 0.035 µM; at human CYP4F2 (setting [2]), 0.012 µM.
Turning to `CC(C)(CCNC(=O)N1CCC[C@@H](COc2ccc(-c3ccn[nH]3)nc2)C1)C(=O)O` [Example 55-1, 2,2-Dimethyl-4-[[oxo-[(3R)-3-[[6-(1H-pyrazol-5-yl)-3-pyridinyl]oxymethyl]-1-piperidinyl]methyl]amino]butanoic Acid], the IC50 against human CYP4A11 (setting [3]) amounted to 0.2 µM; at human CYP4F2 (setting [4]) it was 6.5 µM.
The matching figures for `CS(=O)(=O)NCC12CC(COc3ccc(-c4ccn[nH]4)nc3)(C1)C2` [Example 58-1, N-[[3-[[6-(1H-Pyrazol-5-yl)-3-pyridinyl]oxymethyl]-1-bicyclo[1.1.1]pentanyl]methyl]methanesulfonamide]: 0.58 µM and 0.12 µM.
The corresponding values for `O=C(O)Cc1ccc(COc2ccc(-c3ccn[nH]3)nc2)cc1` [Example 21-1, 2-[4-[[6-(1H-Pyrazol-5-yl)-3-pyridinyl]oxymethyl]phenyl]acetic Acid] are 0.043 µM and 15 µM.
The corresponding values for `O=C(O)/C=C/c1cccc(COc2ccc(-c3ccn[nH]3)nc2)c1` [Example 22-1, (2E)-3-[3-[[[6-(1H-Pyrazol-5-yl)pyridin-3-yl]oxy]methyl]phenyl]-2-propenoic Acid] are 0.015 µM and 0.14 µM.
As for `OC1(c2cccc(COc3ccc(-c4ccn[nH]4)nc3)c2)CCCC1` [Example 27-4], the half-inhibitory concentration (IC50) came out at 0.11 µM on human CYP4A11 (setting [3]) and 0.12 µM at human CYP4F2 (setting [4]).
The matching figures for `O=C(O)CCc1cccc(COc2cnc(-c3ccn[nH]3)c(F)c2)c1` [Example 38-1, 3-[3-[[5-Fluoro-6-(1H-pyrazol-5-yl)-3-pyridinyl]oxymethyl]phenyl]propanoic Acid]: 0.02 µM and 1.1 µM.
Take `CC(=O)N1CCC(O)(c2cccc(COc3ccc(-c4ccn[nH]4)nc3)c2)CC1` [Example 52-1, 1-[4-Hydroxy-4-[3-[[6-(1-H-pyrazol-5-yl)-3-pyridinyl]oxymethyl]phenyl]-1-piperidinyl]ethanone]: the values for the concentration for half-maximal inhibition (IC50) against human CYP4A11 (setting [3]) and at human CYP4F2 (setting [4]) were 0.71 µM and 0.0044 µM, respectively.
On to `CN(C(C)(C)C(=O)O)S(=O)(=O)c1cccc(COc2ccc(-c3ccn[nH]3)nc2)c1` [Example 75-4], for which the IC50 against human CYP4A11 (setting [1]) worked out at 0.043 µM; at human CYP4F2 (setting [2]) it was 29 µM.
Turning to `O=C(O)C1(c2cccc(COc3ccc(-c4ccn[nH]4)nc3)c2)CC1` [Example 21-3], the half-maximal inhibitory concentration (IC50) on human CYP4A11 (setting [3]) is 0.016 µM; at human CYP4F2 (setting [4]) it was 21 µM.
As to `O=C(NCc1cc(O)no1)c1cccc(COc2ccc(-c3ccn[nH]3)nc2)c1` [Example 45-47], the half-maximal inhibitory concentration (IC50) at human CYP4A11 (setting [3]) came out at 0.19 µM; at human CYP4F2 (setting [4]), 0.97 µM.
The matching figures for `O=C(CCc1cccc(COc2ccc(-c3ccn[nH]3)nc2)c1)N1CCC1` [Example 42-12]: 0.044 µM and 0.042 µM.
The corresponding values for `O=C(O)c1cnc(-c2cccc(COc3ccc(-c4ccn[nH]4)nc3)c2)nc1` [Example 22-5, 2-[3-[[6-(1H-Pyrazol-5-yl)-3-pyridinyl]oxymethyl]phenyl]-5-pyrimidinecarboxylic Acid] are 0.12 µM and 3.1 µM.
For `O=C(O)[C@@H]1COc2ccc(COc3ccc(-c4ccn[nH]4)nc3)cc2C1` [Example 69-2-1], the results for the IC50 against human CYP4A11 (setting [1]) and at human CYP4F2 (setting [2]) were 0.037 µM and 0.6 µM, respectively.
For the compound `O=C(O)c1ccc(CCCCOc2ccc(-c3ccn[nH]3)nc2)cn1` [Example 29-4], the IC50 on human CYP4A11 (setting [3]) turned out to be 0.042 µM; on human CYP4F2 (setting [4]), 0.24 µM.
In the case of `O=C(N[C@@H](Cc1ccccc1)C(=O)O)c1cccc(COc2ccc(-c3ccn[nH]3)nc2)c1` [Example 45-11], the figures for the IC50 on human CYP4A11 (setting [1]) and on human CYP4F2 (setting [2]) were 0.023 µM and 1.2 µM, respectively.
The matching figures for `O=C(CCc1cccc(COc2cnc(-c3ccn[nH]3)c(F)c2)c1)N1CC(O)C1` [Example 42-19]: 0.11 µM and 0.047 µM.
Regarding `O=C(O)C1CC1c1cc(F)cc(CCOc2ccc(-c3ccn[nH]3)nc2)c1` (single isomer, unassigned) [Example 74-11], the IC50 is 0.078 µM at human CYP4A11 (setting [1]) and 1.2 µM on human CYP4F2 (setting [2]).
Turning to `O=C(c1ccc(=O)[nH]c1)N1CCC[C@@H](COc2ccc(-c3ccn[nH]3)nc2)C1` [Example 41-3], the IC50 at human CYP4A11 (setting [3]) was determined as 0.57 µM; at human CYP4F2 (setting [4]) it was 4.3 µM.
Take `O=C(O)CC1CCN(C(=O)c2cccc(COc3ccc(-c4ccn[nH]4)nc3)c2)CC1` [Example 45-30]: the IC50 against human CYP4A11 (setting [1]) came to 0.29 µM; against human CYP4F2 (setting [2]), 4 µM.
For `O=C(O)c1cccc(COc2ccc(-c3ccn[nH]3)nc2)c1` [Example 22-2], the IC50 was 0.042 µM against human CYP4A11 (setting [3]) and 1.4 µM against human CYP4F2 (setting [4]).
Consider `O=C(CCc1cccc(COc2ccc(-c3ccn[nH]3)nc2)c1)NCCO` [Example 42-11], for which the values for the concentration for half-maximal inhibition (IC50) against human CYP4A11 (setting [3]) and against human CYP4F2 (setting [4]) were 0.1 µM and 0.095 µM, respectively.
For `CN(CCC(=O)O)C(=O)c1cccc(COc2ccc(-c3ccn[nH]3)nc2)c1` [Example 45-2], the figures for the half-inhibitory concentration (IC50) at human CYP4A11 (setting [1]) and on human CYP4F2 (setting [2]) were 0.15 µM and 3.2 µM, respectively.
The matching figures for `O=C(O)C1(Cc2ccc(CCOc3ccc(-c4ccn[nH]4)nc3)cc2)CC1` [Example 74-1]: 0.13 µM and 1.1 µM.
Consider `O=C(O)C1CC1c1cccc(COc2ccc(-c3ccn[nH]3)nc2)c1` (single isomer, unassigned) [Example 26-1, trans-2-[3-[[6-(1H-Pyrazol-5-yl)-3-pyridinyl]oxymethyl]phenyl]-1-cyclopropanecarboxylic Acid], for which the IC50 against human CYP4A11 (setting [3]) was 0.02 µM; at human CYP4F2 (setting [4]), 0.4 µM.
Regarding `O=C(O)C[C@H]1CCN(C(=O)c2cccc(COc3ccc(-c4ccn[nH]4)nc3)c2)C1` [Example 45-39], the IC50 was 0.47 µM at human CYP4A11 (setting [1]) and 1.4 µM at human CYP4F2 (setting [2]).
`O=C(O)CCc1ccc(COc2ccc(-c3ccn[nH]3)nc2)cc1` [Example 1-3]: the half-inhibitory concentration (IC50) at human CYP4A11 (setting [3]) came out at 0.079 µM; at human CYP4F2 (setting [4]), 0.22 µM.
The matching figures for `CC(C)(CCNS(=O)(=O)c1cccc(COc2ccc(-c3ccn[nH]3)nc2)c1)C(=O)O` [Example 21-4]: 0.025 µM and 1.5 µM.
As to `O=C(O)Cn1cc(CCCCOc2ccc(-c3ccn[nH]3)nc2)cn1` [Example 8-12], the figures for the half-inhibitory concentration (IC50) on human CYP4A11 (setting [3]) and on human CYP4F2 (setting [4]) were 0.1 µM and 5 µM, respectively.
The corresponding values for `OC(Cc1cccc(COc2ccc(-c3ccn[nH]3)nc2)c1)C(F)(F)F` (stereo not drawn) [Example 59-1, 1,1,1-Trifluoro-3-[3-[[6-(1H-pyrazol-5-yl)-3-pyridinyl]oxymethyl]phenyl]-2-propanol] are 0.13 µM and 0.01 µM.
For the compound `CN(C)C(=O)/C=C/c1cccc(COc2ccc(-c3ccn[nH]3)nc2)c1` [Example 42-16], the half-inhibitory concentration (IC50) was found to be 0.21 µM against human CYP4A11 (setting [1]) and 0.0057 µM on human CYP4F2 (setting [2]).
The matching figures for `O=C(O)[C@H]1CCCN(S(=O)(=O)c2cccc(COc3ccc(-c4ccn[nH]4)nc3)c2)C1` [Example 69-4-2]: 0.04 µM and 0.67 µM.
On to `CC(C)(C(=O)O)n1cc(CCCCOc2ccc(-c3ccn[nH]3)nc2)nn1` [Example 35-3], for which the figures for the concentration for half-maximal inhibition (IC50) against human CYP4A11 (setting [3]) and on human CYP4F2 (setting [4]) were 0.29 µM and 7.4 µM, respectively.
Take `CC(C)(O)CS(=O)(=O)c1cccc(COc2ccc(-c3ccn[nH]3)nc2)c1` [Example 36-1, 2-Methyl-1-[3-[[6-(1-H-pyrazol-5-yl)-3-pyridinyl]oxymethyl]phenyl] sulfonyl-2-propanol]: the IC50 on human CYP4A11 (setting [3]) was determined as 0.082 µM; at human CYP4F2 (setting [4]) it was 0.093 µM.
The corresponding values for `Cc1ccc(COc2ccc(-c3ccn[nH]3)nc2)cc1O` [Example 12-1, 2-Methyl-5-[[6-(1H-pyrazol-5-yl)-3-pyridinyl]oxymethyl]phenol] are 0.26 µM and 0.0062 µM.
As to `CC[C@H](OCCCCCCCOc1ccc(-c2ccn[nH]2)nc1)C(=O)O` [Example 71-2-2], the figures for the IC50 against human CYP4A11 (setting [1]) and against human CYP4F2 (setting [2]) were 0.087 µM and 0.09 µM, respectively.
Turning to `O=C(O)c1ccc2c(c1)C(CCOc1ccc(-c3ccn[nH]3)nc1)CCC2` (stereo not drawn) [Example 5-2], the half-maximal inhibitory concentration (IC50) turned out to be 0.073 µM at human CYP4A11 (setting [3]) and 1.7 µM at human CYP4F2 (setting [4]).
For `O=C(O)c1cc2n(n1)CCN(C(=O)c1cccc(COc3ccc(-c4ccn[nH]4)nc3)c1)C2` [Example 45-45], the figures for the IC50 on human CYP4A11 (setting [1]) and against human CYP4F2 (setting [2]) were 1.7 µM and 1.6 µM, respectively.

These data come from US11365192B2, “Pyridine compound substituted with azole” (TAISHO PHARMACEUTICAL CO., LTD., priority 2017, dated 2022).
